The target in data set [1] is T1, albumin (Bos taurus, UniProt P02769).
T1 construct: 333 mg bovine serum albumin was dissolved in 0.667 ml PBS
The data set is described as follows: Gelation of albumin solution in PBS by synthetic crosslinker after raising pH. The note with it: for time to soft hydrogel: 333 mg bovine serum albumin in 0.667 ml PBS; for Gel time: 27° C. Set-up: species or system bovine. From the text:
As described above, a biological fluid (e.g., blood, serum, or fibrinogen rich fractions) may be used for reaction with crosslinkers or the monomers to form a crosslinked gel material. The material may be made in preparation for a medical procedure, e.g., immediately before or during the same, and used with a crosslinker or the monomer. […] The crosslinking reaction is accelerated by raising the pH of the solution. This can be achieved by contacting such composition with suitable alkaline buffer. Nonlimiting examples of suitable alkaline buffers include HEPES, sodium hydroxide, potassium hydroxide, calcium hydroxide, bicarbonate/NaOH pH 10, sodium borate pH 10, 1.5 M glycine/NaOH pH 10, 0.5-0.75M sodium carbonate/bicarbonate pH 10, 1M hydroxyethylepiperazine propane sulfonic acid (EPPS) pH 8.5, Trishydroxymethyl aminoethane sulphonic acid pH 8 and triethanol amine pH 7. The amount of alkaline buffer that is utilized should be enough to induce crosslinking. In some cases, the crosslinker is mixed with the alkaline buffer to raise the pH and then mixed with biological fluid to induce crosslinking or gelation. This method is least preferred due to hydrolysis of n-hydroxysuccimide esters at higher pH. The amine-succinimide ester reaction parameters such as number of reactive functional groups present on the biological fluid components, concentration of each ingredient, pH, temperature and pressures are adjusted such that gelation occurs within 60 minutes, more preferably with in 60 seconds and most preferably with 1 to 10 seconds.
pH was raised using 3M NaOH solution, at ambient temperature (27° C.) and mixed equal volumes. […] PEG 600 is polyethylene glycol with a molecular weight of 600.
[…] of […] was dissolved in 1 ml PBS. […] 20 microliter […] solution in PBS and 20 microliter albumin solution were mixed on a glass plate to form a uniform solution.
[…] of BTANHS was dispersed in 0.9 ml PBS. […] 20 microliter BTANHS dispersion in PBS and 20 microliter of albumin solution were mixed on a glass plate to form a uniform dispersion.
[…] of BTANHS was dispersed in 0.8 ml PBS containing 2% PLURONIC F127 (from BASF corporation USA) as a surfactant. Sonication or high speed stirring helps to form the emulsion. […] 20 microliter BTANHS emulsion in PBS and 20 microliter of albumin solution were mixed in a 1 ml plastic centrifuge tube to form a uniform solution.
Polyethylene glycol serves as an organic solvent. 200 mg bovine serum albumin was dissolved in 0.800 ml PBS.
20 microliter albumin solution and 20 microliter crosslinkers solution were mixed on a glass plate to form a uniform solution.

Data set [2] can be described thus: Solubility in water. In kind it is physicochemical.
Data set [3] is described as follows: Degradation of crosslinked gel made with 8 arm PEG amine. Particulars: gel with 8 arm PEG amine 20000; hydrolysis of ester bond of crosslinker. In kind it is physicochemical. As to the method: 1 ml of each of these two solutions are mixed to produce a crosslinked gel. The crosslinked gel degrades due to hydrolysis of succinate ester bond in Hydroxylamine Succinate NHS ester.
0.12 g Hydroxylamine Glutarate NHS ester (Example 7) is dissolved in 5 ml phosphate buffered saline. 1 ml of each of two solutions are mixed to produce a crosslinked gel. The crosslinked gel degrades due to hydrolysis of glutarate ester bond in Hydroxylamine Glutarate NHS ester.

T1 sequence (P02769 25-607): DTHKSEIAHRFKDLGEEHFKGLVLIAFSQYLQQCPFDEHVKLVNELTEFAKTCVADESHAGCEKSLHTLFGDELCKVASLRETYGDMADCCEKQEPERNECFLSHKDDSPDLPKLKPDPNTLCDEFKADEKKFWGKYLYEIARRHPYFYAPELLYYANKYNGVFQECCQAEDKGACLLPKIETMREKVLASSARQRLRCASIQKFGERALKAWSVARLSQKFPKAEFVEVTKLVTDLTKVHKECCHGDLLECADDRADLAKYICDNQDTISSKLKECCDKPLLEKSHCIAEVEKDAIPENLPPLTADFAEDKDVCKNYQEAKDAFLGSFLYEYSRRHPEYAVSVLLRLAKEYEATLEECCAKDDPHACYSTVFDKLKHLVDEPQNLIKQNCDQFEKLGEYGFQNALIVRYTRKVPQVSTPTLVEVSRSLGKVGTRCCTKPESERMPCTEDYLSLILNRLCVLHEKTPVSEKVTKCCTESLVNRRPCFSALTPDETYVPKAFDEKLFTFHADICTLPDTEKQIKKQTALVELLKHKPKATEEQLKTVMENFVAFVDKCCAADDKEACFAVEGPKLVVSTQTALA

Consider `O=C(CC(C(=O)ON1C(=O)CCC1=O)C(CC(=O)ON1C(=O)CCC1=O)C(=O)ON1C(=O)CCC1=O)ON1C(=O)CCC1=O` (stereo not shown) [BTANHS], for which the “time to soft hydrogel” value was determined as 5 min in data set [1] (crosslinker dispersion in PBS, 3M sodium hydroxide) and 3 min in data set [1] (crosslinker emulsion in PBS with 2% PLURONIC F127, triethanol amine). Also, the “Notes (gel formed)” value in data set [1] (5% albumin in PBS, crosslinker 10% in PBS) is recorded as “Did not gel”; in data set [1] (5% albumin in PBS, crosslinker (10%) in PEG 600), “Did not gel”; in data set [1] (10% albumin in PBS, crosslinker 10% in PBS), “Soft gel”; in data set [1] (20% albumin in PBS, crosslinker 10% in PBS) it was “Soft gel”; in data set [1] (20% albumin in PBS, crosslinker (10%) in PEG 600), “Soft gel”; in data set [1] (30% albumin in PBS, crosslinker 10% in PBS) it was “Soft gel”. Also, the “Gel time” value in data set [1] (5% albumin in PBS, crosslinker 10% in PBS, 3M NaOH, equal volumes) is over 28 min; in data set [1] (5% albumin in PBS, crosslinker (10%) in PEG 600, 3M NaOH) it was over 25 min; in data set [1] (10% albumin in PBS, crosslinker 10% in PBS, 3M NaOH, equal volumes) it was 18 min; in data set [1] (20% albumin in PBS, crosslinker 10% in PBS, 3M NaOH, equal volumes), 3 min; in data set [1] (20% albumin in PBS, crosslinker (10%) in PEG 600, 3M NaOH), 5 min; in data set [1] (30% albumin in PBS, crosslinker 10% in PBS, pH raised with 3M NaOH, equal volumes) it was 1 min. Besides, in data set [2], the solubility in water entry is given as “Water Insoluble”.
As for Hydroxylamine Glutarate NHS Ester, in data set [3], the “degradation of crosslinked gel” value is listed as “degrades”.

Source of the values: patent US7597882B2, “Protein crosslinkers, crosslinking methods and applications thereof” (Incept LLC, priority 2006, dated 2009).
